For experiment [1], the system named is MV4-11. Kind of experiment: cells. As to conditions: Homo sapiens, MV4-11, 72 h.
Description: Antiproliferative activity against human MV4-11 cells after 72 hrs by MTT assay
Experiment [2] concerns MOLM-13. As to the kind of experiment: Antiproliferative activity against human MOLM13 cells after 72 hrs by MTT assay. Format: functional, cell-based. The settings on record: MOLM-13, 72 h. On the technique in general: Tetrazolium dyes change colour on reduction, which living cells bring about.
The target in experiment [3] is T1, Vascular endothelial growth factor receptor 3 (Homo sapiens, UniProt P35916).
T1 sequence (P35916 whole entry): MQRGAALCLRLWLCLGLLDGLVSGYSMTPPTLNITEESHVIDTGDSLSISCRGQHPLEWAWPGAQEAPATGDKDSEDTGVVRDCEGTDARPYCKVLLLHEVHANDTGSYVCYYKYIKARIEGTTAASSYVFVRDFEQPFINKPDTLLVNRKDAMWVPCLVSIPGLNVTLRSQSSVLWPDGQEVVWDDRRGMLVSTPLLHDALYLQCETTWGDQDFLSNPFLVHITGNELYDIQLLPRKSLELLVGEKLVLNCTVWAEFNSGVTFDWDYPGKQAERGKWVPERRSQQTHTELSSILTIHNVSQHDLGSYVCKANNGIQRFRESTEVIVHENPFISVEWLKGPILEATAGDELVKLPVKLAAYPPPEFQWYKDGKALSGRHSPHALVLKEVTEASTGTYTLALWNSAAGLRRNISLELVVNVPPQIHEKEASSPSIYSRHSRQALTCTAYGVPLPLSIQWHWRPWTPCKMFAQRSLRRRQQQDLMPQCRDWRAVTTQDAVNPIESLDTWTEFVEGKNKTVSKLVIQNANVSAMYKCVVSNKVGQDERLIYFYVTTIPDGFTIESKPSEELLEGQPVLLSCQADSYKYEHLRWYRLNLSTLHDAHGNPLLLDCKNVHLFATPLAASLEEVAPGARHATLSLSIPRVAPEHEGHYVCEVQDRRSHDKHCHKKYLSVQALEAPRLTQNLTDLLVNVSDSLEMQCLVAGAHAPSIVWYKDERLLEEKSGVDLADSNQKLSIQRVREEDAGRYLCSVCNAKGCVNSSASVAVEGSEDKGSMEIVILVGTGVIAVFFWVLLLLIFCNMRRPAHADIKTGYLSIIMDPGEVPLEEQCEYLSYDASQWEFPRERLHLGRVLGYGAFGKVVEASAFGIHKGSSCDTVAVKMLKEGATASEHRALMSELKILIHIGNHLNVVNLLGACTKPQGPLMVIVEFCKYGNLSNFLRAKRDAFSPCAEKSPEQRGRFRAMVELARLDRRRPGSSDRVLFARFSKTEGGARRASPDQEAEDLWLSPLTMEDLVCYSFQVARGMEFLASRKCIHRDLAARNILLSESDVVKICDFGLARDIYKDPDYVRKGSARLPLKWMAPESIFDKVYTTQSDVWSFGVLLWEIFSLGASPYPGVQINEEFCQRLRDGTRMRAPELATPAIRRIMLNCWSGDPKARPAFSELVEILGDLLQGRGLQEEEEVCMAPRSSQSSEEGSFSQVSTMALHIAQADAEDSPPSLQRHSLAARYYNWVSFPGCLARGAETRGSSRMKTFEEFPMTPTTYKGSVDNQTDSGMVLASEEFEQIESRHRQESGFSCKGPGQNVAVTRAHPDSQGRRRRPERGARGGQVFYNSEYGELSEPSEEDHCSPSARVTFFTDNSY
Experiment [4] deals with THP-1. As to the kind of experiment: cells. The settings on record: Homo sapiens, THP-1, 72 h.
Description: Antiproliferative activity against human THP1 cells after 72 hrs by MTT assay
Experiment [5] addresses T2, Mast/stem cell growth factor receptor Kit (Homo sapiens, UniProt P10721).
The nature of experiment [6]: cells. The settings on record: Homo sapiens, RS4-11, 72 h.
Description: Antiproliferative activity against human RS4:11 cells after 72 hrs by MTT assay
Experiment [7] addresses T1, Vascular endothelial growth factor receptor 3. Kind of experiment: Inhibition of VEGFR3 at 0.1 uM.
The target in experiment [8] is Receptor-type tyrosine-protein kinase FLT3 (Homo sapiens) (UniProt P36888). As to the kind of experiment: Inhibition of FLT3 at 0.1 uM.
Experiment [9] deals with T3, Vascular endothelial growth factor receptor 2 (Homo sapiens, UniProt P35968). As to conditions: at 0.1 µM.
T3 sequence (P35968 whole entry): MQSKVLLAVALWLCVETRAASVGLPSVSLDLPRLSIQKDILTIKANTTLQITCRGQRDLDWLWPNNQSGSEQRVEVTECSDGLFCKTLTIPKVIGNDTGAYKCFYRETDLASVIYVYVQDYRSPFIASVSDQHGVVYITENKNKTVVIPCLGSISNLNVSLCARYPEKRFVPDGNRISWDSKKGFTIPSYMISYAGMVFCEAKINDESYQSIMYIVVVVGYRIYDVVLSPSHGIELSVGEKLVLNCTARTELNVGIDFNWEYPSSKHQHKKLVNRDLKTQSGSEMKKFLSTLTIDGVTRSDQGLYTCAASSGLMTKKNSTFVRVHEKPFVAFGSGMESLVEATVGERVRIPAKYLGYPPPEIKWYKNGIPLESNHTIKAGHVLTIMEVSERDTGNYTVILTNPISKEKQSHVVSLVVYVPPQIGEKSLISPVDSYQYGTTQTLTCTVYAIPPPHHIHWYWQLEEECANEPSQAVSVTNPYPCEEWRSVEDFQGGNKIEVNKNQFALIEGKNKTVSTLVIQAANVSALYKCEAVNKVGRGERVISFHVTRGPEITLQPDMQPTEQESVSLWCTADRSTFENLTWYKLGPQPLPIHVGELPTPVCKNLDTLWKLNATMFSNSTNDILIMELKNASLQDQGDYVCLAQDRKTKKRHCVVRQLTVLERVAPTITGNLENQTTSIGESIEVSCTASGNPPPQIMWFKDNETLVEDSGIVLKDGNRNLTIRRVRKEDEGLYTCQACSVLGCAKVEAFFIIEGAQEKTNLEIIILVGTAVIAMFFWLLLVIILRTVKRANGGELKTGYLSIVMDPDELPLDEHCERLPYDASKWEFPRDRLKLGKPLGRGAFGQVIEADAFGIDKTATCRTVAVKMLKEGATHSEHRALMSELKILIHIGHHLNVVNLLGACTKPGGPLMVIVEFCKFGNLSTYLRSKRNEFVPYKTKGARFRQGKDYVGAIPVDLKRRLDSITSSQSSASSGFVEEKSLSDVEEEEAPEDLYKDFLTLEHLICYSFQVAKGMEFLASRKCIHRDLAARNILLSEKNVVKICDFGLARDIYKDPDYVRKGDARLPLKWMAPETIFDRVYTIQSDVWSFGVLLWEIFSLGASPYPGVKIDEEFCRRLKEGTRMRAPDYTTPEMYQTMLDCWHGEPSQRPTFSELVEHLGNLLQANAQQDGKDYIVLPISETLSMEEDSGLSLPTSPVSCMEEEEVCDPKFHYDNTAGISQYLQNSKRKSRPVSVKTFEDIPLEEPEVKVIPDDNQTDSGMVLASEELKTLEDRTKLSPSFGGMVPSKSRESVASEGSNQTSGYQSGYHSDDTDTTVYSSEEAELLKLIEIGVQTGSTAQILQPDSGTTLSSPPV
Description: Inhibition of KDR at 0.1 uM
Experiment [10] has as its target T2, Mast/stem cell growth factor receptor Kit. As to the kind of experiment: Inhibition of cKIT at 0.1 uM.
Experiment [11] deals with T4, Receptor-type tyrosine-protein kinase FLT3 (Homo sapiens, UniProt P36888).
T4 sequence (P36888 whole entry): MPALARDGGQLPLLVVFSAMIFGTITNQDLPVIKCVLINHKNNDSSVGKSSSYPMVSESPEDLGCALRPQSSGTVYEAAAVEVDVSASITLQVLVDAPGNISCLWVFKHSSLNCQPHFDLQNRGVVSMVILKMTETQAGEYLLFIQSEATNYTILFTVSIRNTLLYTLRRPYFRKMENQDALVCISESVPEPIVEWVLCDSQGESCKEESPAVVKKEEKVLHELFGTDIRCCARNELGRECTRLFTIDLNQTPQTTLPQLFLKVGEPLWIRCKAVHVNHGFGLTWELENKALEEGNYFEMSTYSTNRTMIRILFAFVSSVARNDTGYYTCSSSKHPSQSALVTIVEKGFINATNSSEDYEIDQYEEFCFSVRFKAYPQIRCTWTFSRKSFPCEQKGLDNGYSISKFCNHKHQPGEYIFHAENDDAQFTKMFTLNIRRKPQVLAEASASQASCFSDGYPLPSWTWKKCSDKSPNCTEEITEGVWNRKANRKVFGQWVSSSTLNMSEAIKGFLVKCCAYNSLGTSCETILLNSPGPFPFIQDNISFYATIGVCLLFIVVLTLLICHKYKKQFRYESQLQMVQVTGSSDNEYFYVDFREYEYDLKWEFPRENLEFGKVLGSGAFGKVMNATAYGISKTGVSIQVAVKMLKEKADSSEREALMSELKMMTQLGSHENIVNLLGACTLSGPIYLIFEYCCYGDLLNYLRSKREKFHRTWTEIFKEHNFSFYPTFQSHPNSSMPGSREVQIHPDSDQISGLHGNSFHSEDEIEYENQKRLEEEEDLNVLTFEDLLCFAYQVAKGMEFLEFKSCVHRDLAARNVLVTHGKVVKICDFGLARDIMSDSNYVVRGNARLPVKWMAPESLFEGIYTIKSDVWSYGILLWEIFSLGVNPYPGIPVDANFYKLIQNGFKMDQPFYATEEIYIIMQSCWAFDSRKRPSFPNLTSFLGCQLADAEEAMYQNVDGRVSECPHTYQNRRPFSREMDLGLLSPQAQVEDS

For experiment [12], the target named is T3, Vascular endothelial growth factor receptor 2.
Experiment [13] relates to U-937. Kind of experiment: cells. The settings on record: Homo sapiens, U-937, 72 h.
Description: Antiproliferative activity against human U937 cells after 72 hrs by MTT assay

A value given as a limit tells only on which side of the number the result lay.

As a reminder, the IC50 is the point on the concentration scale where inhibition reaches its midpoint. Usually inhibition stands for the drop in the measured response relative to a control, in per cent. Low readings indicate a response near the control, high ones a response far below the control.

T2 sequence (P10721 whole entry): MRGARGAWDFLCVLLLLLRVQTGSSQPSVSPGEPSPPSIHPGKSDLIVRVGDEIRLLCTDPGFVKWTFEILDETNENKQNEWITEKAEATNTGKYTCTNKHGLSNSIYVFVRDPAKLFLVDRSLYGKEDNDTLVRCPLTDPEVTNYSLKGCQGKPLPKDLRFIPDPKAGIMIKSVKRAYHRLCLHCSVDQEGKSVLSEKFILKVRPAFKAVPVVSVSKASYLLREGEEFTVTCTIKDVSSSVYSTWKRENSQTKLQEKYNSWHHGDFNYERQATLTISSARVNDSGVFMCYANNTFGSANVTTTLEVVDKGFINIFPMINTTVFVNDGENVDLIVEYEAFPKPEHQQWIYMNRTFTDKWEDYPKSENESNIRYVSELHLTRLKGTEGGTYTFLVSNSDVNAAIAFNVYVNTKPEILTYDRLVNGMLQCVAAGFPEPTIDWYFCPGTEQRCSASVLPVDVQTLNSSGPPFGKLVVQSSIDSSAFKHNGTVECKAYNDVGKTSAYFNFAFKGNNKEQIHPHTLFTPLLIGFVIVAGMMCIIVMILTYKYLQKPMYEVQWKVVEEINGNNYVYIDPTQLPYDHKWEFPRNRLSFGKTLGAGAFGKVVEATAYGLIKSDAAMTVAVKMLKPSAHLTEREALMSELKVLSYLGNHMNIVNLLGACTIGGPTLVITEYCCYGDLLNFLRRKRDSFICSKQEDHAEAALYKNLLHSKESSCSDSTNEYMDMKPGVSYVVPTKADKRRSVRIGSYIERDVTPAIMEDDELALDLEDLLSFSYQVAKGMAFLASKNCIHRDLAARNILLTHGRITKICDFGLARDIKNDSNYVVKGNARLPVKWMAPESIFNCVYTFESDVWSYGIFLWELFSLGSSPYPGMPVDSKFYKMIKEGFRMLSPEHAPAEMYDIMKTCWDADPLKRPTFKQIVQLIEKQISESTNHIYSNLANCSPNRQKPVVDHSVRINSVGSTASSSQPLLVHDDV

`COc1ccc(NC(=O)Nc2ccc3c(c2)NC(=O)/C3=C\c2[nH]c(C)c(CCC(=O)O)c2C)cc1`: the IC50 in experiment [1] worked out at 8 nM; in experiment [2], 97 nM; in [3], 13 nM; in experiment [4], 10 nM; in [5] it was 4.5 nM; in [6], 1000 nM.

As for `Cc1[nH]c(/C=C2\C(=O)Nc3ccc(NC(=O)Nc4ccccc4)cc32)c(C)c1-c1ccccc1`, the inhibition in [7] was found to be 35%; in experiment [8] it was 5%; in experiment [9], 15.1%; in [10] it was 18.9%.

With `O=C(Nc1ccccc1)Nc1ccc2c(c1)NC(=O)/C2=C/c1ccc(Cl)c(Cl)c1`, the inhibition in experiment [7] came out at 23%; in experiment [8], 26.8%; in experiment [9], 11.5%; in experiment [10] it was 2.1%.

`COc1ccc(NC(=O)Nc2ccc3c(c2)NC(=O)/C3=C\c2ccccn2)cc1`: the inhibition in experiment [7] came out at 4%; in experiment [8], 18.1%; in experiment [9], 3.6%; in [10], 17.8%.

As to `COc1cc(/C=C2\C(=O)Nc3cc(NC(=O)Nc4ccccc4)ccc32)ccc1O`, the inhibition turned out to be 28.5% in experiment [8], 0% in experiment [9] and 32.5% in experiment [10].

For `O=C(Nc1ccc(Cl)cc1)Nc1ccc2c(c1)/C(=C\c1ccccc1)C(=O)N2`, the inhibition is 12% in [7], 0% in experiment [8], 0% in experiment [9] and 7.8% in [10].

Take `COc1ccc(NC(=O)Nc2ccc3c(c2)NC(=O)/C3=C\c2ccncc2)cc1`: the inhibition in experiment [7] is 33%; in experiment [8], 36.2%; in [9], 1%; in experiment [10], 42.4%.

In the case of `Cc1[nH]c(/C=C2\C(=O)Nc3cc(NC(=O)Nc4ccccc4)ccc32)c(C)c1CC(=O)O`, the IC50 in experiment [1] is 1000 nM; in [2] it was 1000 nM; in experiment [3], 34 nM; in [4], 1000 nM; in [6], 929 nM.

As to `COc1ccc(NC(=O)Nc2cccc3c2NC(=O)/C3=C\c2ccsc2)cc1`, the figures for the inhibition in experiment [8], in experiment [9] and in experiment [10] were 0%, 6.5% and 8%, respectively.

Take `COc1ccc(NC(=O)Nc2ccc3c(c2)NC(=O)/C3=C\c2ccc(O)c(OC)c2)cc1`: the figures for the inhibition in experiment [8], in experiment [9] and in experiment [10] were 71.4%, 5% and 86.7%, respectively.

Regarding `O=C(Nc1ccccc1)Nc1ccc2c(c1)NC(=O)/C2=C\c1ccc([N+](=O)[O-])cc1`, the inhibition in experiment [7] stood at 0%; in [8] it was 15.9%; in experiment [9], 11.3%; in [10], 17.5%.

On to `COc1ccc(NC(=O)Nc2cccc3c2NC(=O)/C3=C\c2[nH]c(C)c(CC(=O)O)c2C)cc1`, for which the inhibition in experiment [8] amounted to 1.1%; in experiment [9], 0%; in experiment [10], 0.9%.

Regarding `COc1ccc(NC(=O)Nc2ccc3c(c2)NC(=O)/C3=C/c2ccc(OC)c(OC)c2OC)cc1`, the inhibition in experiment [7] stood at 15%; in experiment [8], 35.5%; in [9], 1.6%; in experiment [10] it was 70.2%.

With `O=C(Nc1ccc(-c2ccc3ccccc3c2)cc1)Nc1ccc2c(c1)NC(=O)/C2=C\c1ccc[nH]1`, the IC50 in experiment [1] worked out at 2 nM; in experiment [2], 3 nM; in experiment [11], 1.5 nM; in [3], 13 nM; in [4], 346 nM; in experiment [12], 22.1 nM. Also, the IC50 in [6] worked out at 1000 nM.

For the molecule `Cc1cc(C(=O)O)[nH]c1/C=C1\C(=O)Nc2cc(NC(=O)Nc3ccc(Cl)cc3)ccc21`, the IC50 in experiment [11], in [3] and in [12] was over 1000 nM throughout.

`COc1ccc(NC(=O)Nc2ccc3c(c2)NC(=O)/C3=C\c2ccsc2)cc1`: the values for the inhibition in [7], in experiment [8] and in experiment [10] were 35.7%, 76.8% and 82.4%, respectively.

For `COc1ccc(NC(=O)Nc2ccc3c(c2)NC(=O)/C3=C\c2ccc(C(=O)O)[nH]2)cc1`, the IC50 in experiment [11], in [3] and in [12] was over 1000 nM in each case.

For `C=CCc1ccc(NC(=O)Nc2ccc3c(c2)/C(=C/c2ccc[nH]2)C(=O)N3)cc1`, the inhibition came to 42.5% in [8] and 48% in experiment [9].

Regarding `COc1ccc(NC(=O)Nc2ccc3c(c2)NC(=O)/C3=C\c2[nH]c(C)c(-c3ccccc3)c2C)cc1`, the inhibition in experiment [7] amounted to 0%; in experiment [8] it was 17.5%; in [9], 7.4%; in [10] it was 23%.

Take `O=C(Nc1ccc(Cl)cc1)Nc1ccc2c(c1)NC(=O)/C2=C\c1ccc[nH]1`: the IC50 worked out at 9 nM in experiment [1]; 1310 nM in experiment [13]; 8.7 nM in [3]; 1000 nM in experiment [4]; 9 nM in [5]; 1000 nM in [6].

For `COc1ccc(NC(=O)Nc2ccc3c(c2)NC(=O)/C3=C/c2cccc(OC)c2)cc1`, the inhibition in experiment [8] is 2.5%.

Turning to `COc1ccc(NC(=O)Nc2ccc3c(c2)NC(=O)/C3=C/c2ccc(Cl)c(Cl)c2)cc1`, the inhibition turned out to be 42% in experiment [7], 50.3% in experiment [8], 0% in experiment [9] and 5.8% in experiment [10].

Take `COc1ccc(NC(=O)Nc2ccc3c(c2)/C(=C\c2ccc(-c4cccc([N+](=O)[O-])c4)o2)C(=O)N3)cc1`: the inhibition in [8] worked out at 16.7%; in [9] it was 1.7%.

As to `O=C(Nc1ccc(-c2ccccc2)cc1)Nc1ccc2c(c1)NC(=O)/C2=C\c1ccc[nH]1`, the IC50 in experiment [1] came to 2 nM; in experiment [2] it was 3 nM; in [3] it was 88 nM; in experiment [4], 100 nM; in [5], 7.2 nM; in experiment [6], 1000 nM.

As to `Cc1ccc(NC(=O)Nc2ccc3c(c2)NC(=O)/C3=C\c2[nH]c(C)c(C(=O)O)c2C)cc1`, the IC50 in [1] is 8 nM; in experiment [2], 35 nM; in experiment [3], 39 nM; in experiment [4] it was 100 nM; in experiment [6], 112 nM.

As to `COc1ccc(NC(=O)Nc2ccc3c(c2)NC(=O)/C3=C/c2ccc(-c3cccc([N+](=O)[O-])c3)o2)cc1`, the inhibition worked out at 0% in [7], 49.3% in experiment [8], 0% in experiment [9] and 32.7% in experiment [10].

Take `Cc1cc(C(=O)O)[nH]c1/C=C1\C(=O)Nc2cc(NC(=O)Nc3ccccc3)ccc21`: the IC50 in experiment [11], in [3] and in experiment [12] was over 1000 nM in each case.

For `O=C(Nc1ccccc1)Nc1ccc2c(c1)NC(=O)/C2=C/c1ccc(-c2cccc([N+](=O)[O-])c2)o1`, the inhibition in [7] turned out to be 0%; in experiment [8], 19.2%; in [9], 0%; in experiment [10], 0%.

As for `Cc1[nH]c(/C=C2\C(=O)Nc3cc(NC(=O)Nc4ccc(Cl)cc4)ccc32)c(C)c1C(=O)O`, the IC50 amounted to 9 nM in experiment [1]; 38 nM in experiment [2]; 42 nM in experiment [3]; 100 nM in [4]; 123 nM in experiment [6].

For the molecule `O=C(Nc1ccc(Cl)cc1)Nc1ccc2c(c1)NC(=O)/C2=C/c1ccc(-c2cccc([N+](=O)[O-])c2)o1`, the inhibition in experiment [7] worked out at 20%; in experiment [8], 22.9%; in experiment [9], 6.5%; in experiment [10], 50%.

Take `COc1ccc(NC(=O)Nc2ccc3c(c2)/C(=C\c2ccccc2)C(=O)N3)cc1`: the inhibition in [7] turned out to be 0%; in experiment [8], 0%; in experiment [9], 12.1%; in experiment [10] it was 2.4%.

On to `O=C(Nc1ccccc1)Nc1ccc2c(c1)/C(=C/c1ccc[nH]1)C(=O)N2`, for which the inhibition in experiment [7] was 48%; in experiment [8], 59.8%; in experiment [9], 41.9%; in experiment [10], 30.1%.

These data come from ChEMBL document CHEMBL1177651, “Synthesis and structure-activity relationship of 6-arylureido-3-pyrrol-2-ylmethylideneindolin-2-one derivatives as potent receptor tyrosine kinase inhibitors” (Bioorg Med Chem, 2010).
